In US20260115177A1, “MEDICINAL PRODUCTS AND METHODS FOR THE ALLEVIATION OF CANCER IMMUNOTHERA-PY-ASSOCIATED CYTOKINE RELEASE SYNDROME” (POOLBEG PHARMA (UK) LIMITED, priority 2023, published 2026):

Assays:
CAR T cells [1] = conditions: in vitro expansion; inhibitor washed out before adoptive transfer; cited from earlier work
HUVEC endothelial cells [2] = experiment: IL-6 and IL-8 ELISA of HUVEC endothelial cells treated with sCAR; type: cell-based, human; conditions: sCAR stimulation, 24 hours; concentrations of Table 2
Method: (§1) In like manner and also in Example 3 below, sCAR (or smCAR) is added to endothelial (HUVEC) cells, available from the American Type Culture Collection, and using an equivalent protocol to the treatment of THP-1 cells (but with individually optimised conditions, such as the concentration of sCAR used), following which IL-6 release and IL-8 release are observed. Pro-inflammatory cytokines IL-6 and IL-8 are measured using an enzyme-linked immunosorbent assay (ELISA) and IL-6, ICAM1 and VCAM1 are measured by quantitative PCR (QPCR, for which a kit is suitably obtainable from Thermo Fisher Scientific of Kingfisher Dr, Swindon SN3 5BZ, UK).
(§2) sCAR (or smCAR), produced as described in Example 1 above, is added to a monoculture of HUVEC endothelial cells in the presence of UR-13870, Ralimetinib or Acumapimod at each of the concentrations shown in Table 2 above, at 37° C., 5% CO2 and a suitably humid environment for 24 hours.
Supernatant levels of IL-6 and IL-8 from the HUVEC endothelial cell monoculture with sCAR (or smCAR) are determined by ELISA.

CAR T cells [3] = experiment: CAR T cell proliferation in CAR T cell:cancer cell co-culture (Cell Trace Violet, flow cytometry); type: cell-based, human; conditions: CAR T:tumour cell co-culture 1:1; concentrations of Table 2
Method: CAR T cell proliferation is confirmed by Cell Trace™ Violet staining of CAR T cells (staining agent having been added prior to addition of the T cells to the co-cultures with tumour cells). Staining may be observed, following co-culture, via flow cytometry.
(§3) UR-13870, Ralimetinib or Acumapimod are each added to a culture of CD19+ cancer cells (using a micropipette to transfer the correct volume to achieve the desired final concentration in Table 2).
(§4) CAR T cells are then added to the same culture 5-10 minutes later. In brief, CAR T cell concentrations per ml are determined and used to aliquot the desired number of CAR T cells into the culture to achieve the described 1:1 CAR T to cancer cell ratio.
(§5) The co-culture containing CAR T cells and tumour cells is swirled gently to ensure homogenous dispersion of cells throughout the vessel. The resultant co-culture is incubated for 24 to 96 hours in a closed incubator at 37° C. with 5% CO2 and a suitably humid atmosphere.

HUVEC endothelial cells [4] = experiment: IL-6 and IL-8 ELISA of HUVEC cells treated with sCART-mono supernatant; type: cell-based, human; conditions: 24 hr, concentrations of Table 2
Method: (§6) With reference to FIG. 13 of the accompanying drawings, a co-culture (100) is established using a standard cell culture transwell dish, including a first compartment (101), containing CAR T cells and cancer cells (at a 1:1 ratio), which is separated from a second compartment (102), containing monocytes, by a semi-permeable membrane (103) composed of tissue-culture treated polyethylene terephthalate with a 0.4 μm pore size.
(§7) Each of UR-13870, Acumapimod and Ralimetinib are administered to the co-culture following a procedure analogous to that described in Example 2 above (at the concentrations as shown in Table 2 above).
(§8) The co-culture is incubated at 37° C., 5% CO2 and a suitably humid environment for 24 hours. On completion, the transwell insert is removed and supernatant is isolated. Cells and debris are removed from the supernatant by exposing the container to a centripetal force of 400 G and gently pipetting the supernatant into a new container without disturbing the cell pellet at the bottom of the previous container.
(§9) Prior to adding the p38 inhibitors and sCART-mono, endothelial cells are incubated overnight at 37° C. and 5% CO2 in a suitably humid environment to allow the cells to adhere fully to the tissue culture dish.
Supernatant levels of IL-6 and IL-8 are determined following 24 hr treatment with sCART-mono and the p38 MAPK inhibitors by ELISA.

CAR T cells [5] = experiment: T cell exhaustion markers TIM3 and LAG3 on CAR T cells in co-culture (flow cytometry); type: cell-based, human; conditions: CAR T:tumour cell co-culture, concentrations of Table 2; for number of LAG3+ CAR T cells: Ralimetinib 5 μM results to be disregarded
Method: as §3, §4, §5
Both T cell surface markers T cell immunoglobulin and mucin domain-containing protein 3 (TIM3/CD366) and Lymphocyte Activation Gene 3 (LAG3/CD223) are associated with T cell exhaustion and disease progression during immunotherapy treatment. Advantageously, all of UR-13870, Ralimetinib and Acumapimod reduce both the number of TIM3+ CAR T cells, and the number of LAG3+ CAR T cells. […] For LAG3+, the results for Ralimetinib at a 5 μM concentration appear to have been affected by experimental failure, and these may be disregarded accordingly.

HUVEC endothelial cells [6] = experiment: QPCR of VCAM1, ICAM1 and IL-6 in HUVEC cells treated with sCAR; type: cell-based, human; conditions: 24 hours
Method: as §1, §2

CAR T cells [7] = experiment: TNFα immunosorbent assay of CAR T:tumour cell co-culture supernatant; type: cell-based, human
Method: as §3, §4, §5
Cytokine release by T cells is also quantified by TNFα enzyme-based immunosorbent assays of co-culture supernatant, as shown in FIG. 9. Ralimetinib and Acumapimod reduced TNF-α secretion following treatment. Data for UR-13870 were discarded due to failures in the UR-13870 experimental procedure.

THP-1 monocytes = experiment: IL-6 ELISA of THP-1 monocytes treated with sCAR; type: cell-based, human; conditions: sCAR stimulation, 24 hours; concentrations of Table 2
Method: In Example 3 below, sCAR (or smCAR) is added using a micropipette to an in vitro culture of monocyte cells of the human monocytic cell line THP-1, available from the American Type Culture Collection. The culture is incubated in a closed incubator at 37° C. with 5% CO2 and a suitably humid atmosphere for approximately 24 hours, following which cytokine release is observed. p38 MAPK activation and cytokine release are confirmed by evaluation of the presence of IL-6 in THP-1 cells using an enzyme-linked immunosorbent assay (ELISA; for which a kit is suitably obtainable from Thermo Fisher Scientific of Kingfisher Dr, Swindon SN3 5BZ, UK).
(i) Monocytes sCAR (or smCAR), produced as described in Example 1 above, is added to a monoculture of THP-1 monocytes in the presence of UR-13870, Ralimetinib or Acumapimod at each of the concentrations shown in Table 2 above at 37° C., 5% CO2 and a suitably humid environment for 24 hours.
Supernatant levels of IL-6 from the THP-1 monocyte monoculture with sCAR (or smCAR) are determined by ELISA.

CD19+ cancer cells = experiment: CAR T cell killing of tumour cells in 24-hour co-culture (flow cytometry); type: cell-based, human; conditions: high dose only, CAR T to cancer cell ratio 1:1
Description: Raji immortalized human B cell line CD19-expressing cancer cells (available from the American Type Culture Collection) are acquired and stable transfection of the Raji cell line is generated with an mCherry reporter protein to facilitate identification of the cancer cells within co-cultures by detection of the mCherry protein fluorescence by flow cytometry.
as §3, §4, §5
Tumour cell death is observed by examining relative CAR T cell:tumour cell numbers by flow cytometry following 24 hour co-culture, as shown in FIG. 7.

HUVEC endothelial cells [8] = experiment: QPCR of ICAM1 in HUVEC cells treated with sCART-mono supernatant; type: cell-based, human; conditions: 24 hours
Method: as §6, §7, §8, §9
Reduced endothelial cell activation is evidenced by reduced ICAM1 expression in response to treatment with UR-13870, Acumapimod and Ralimetinib.

Row | Structure (SMILES) | CAR T cell phenotypes (CAR T cells [1]) | IL-6 secretion by HUVEC cells (HUVEC endothelial cells [2]) | IL-8 supernatant level, HUVEC cells (HUVEC endothelial cells [2]) | CAR T cell proliferation (Cell Trace Violet staining) (CAR T cells [3]) | IL-6 levels in supernatant (HUVEC endothelial cells [4]) | IL-8 levels in supernatant (HUVEC endothelial cells [4]) | number of TIM3+ CAR T cells (CAR T cells [5]) | number of LAG3+ CAR T cells (CAR T cells [5]) | ICAM1 mRNA levels (HUVEC endothelial cells [6]) | IL-6 mRNA levels (HUVEC endothelial cells [6]) | VCAM1 mRNA levels (HUVEC endothelial cells [6]) | TNF-α secretion (co-culture supernatant) (CAR T cells [7]) | IL-6 secretion by THP-1 monocytes (THP-1 monocytes) | CAR T cell-induced cancer cell death (percentage of residual tumour cells in the co-culture) (CD19+ cancer cells) | ICAM1 expression (endothelial cell activation) (HUVEC endothelial cells [8])
1 | Cc1ccc(-n2nc(C(C)(C)C)cc2NC(=O)Nc2ccc(OCCN3CCOCC3)c3ccccc23)cc1 [Doramapimod/BIRB796] | promote desirable CAR T cell phenotypes in vitro |  |  |  |  |  |  |  |  |  |  |  |  |  | 
2 | Cc1ccc(C(=O)NC2CC2)cc1-n1ncc(C(=O)c2cccc(C#N)c2)c1N [Acumapimod, 3-[5-amino-4-(3-cyanobenzoyl)pyrazol-1-yl]-N-cyclopropyl-4-methylbenzamide] |  | significantly reduce | reduced | maintain CAR T cell proliferation | reduced | (albeit non-significant) downward trend | reduce | reduce | significantly reduce | significantly reduce | reduced, albeit non-significantly | reduced | significantly reduce | maintain CAR T cell-induced cancer cell death | reduced
3 | CC(C)(C)Cn1c(N)nc2ccc(-c3[nH]c(C(C)(C)C)nc3-c3ccc(F)cc3)nc21 [Ralimetinib, 5-[2-tert-Butyl-4-(4-fluorophenyl)-1H-imidazol-5-yl]-3-(2,2-dimethylpropyl)imidazo[4,5-b]pyridin-2-amine] |  | significantly reduce | reduced | maintain CAR T cell proliferation | reduced | (albeit non-significant) downward trend | reduce | reduce | significantly reduce | significantly reduce | reduced, albeit non-significantly | reduced | significantly reduce | maintain CAR T cell-induced cancer cell death | reduced
